Results reported in patent US4581377A, “Fluorene derivatives” (Nippon Shinyaku Co., Ltd., priority 1983, dated 1986).
Read-outs that look alike come from different tables or passages of the source.

Tests used:
[1] = Acute Toxicity; settings: rat, in vivo; rats, p.o.; seven days after oral administration
Procedure: Four male rats (SD strain) of six weeks age were used as a group and the LD50 values seven days after oral administration was calculated by Weil's method.

[2] = Action for formation of ulcer; set-up: species or system rat (male, SD strain); settings: rat, in vivo, po
Procedure: (Action for formation of ulcer)
Male rats (SD strain) of five weeks age were fasted for 24 hours and the test compound (as a suspension in CMC; 0.5% concentration) was given orally at a dose of 1 ml/100 g body weight. After 24 hours, 5% pontamine sky blue (0.5 ml) was injected intravenously and, ten minutes thereafter, the rats were killed by anesthetizing with ether and their stomachs were removed therefrom. […] When at least one ulcer was observed, the ulcer formation was decided to be positive and, according to a Weil's method (four rats per group), UD50 (50% ulcer-forming dose) was determined.

[3] = test system: acetic acid writhing; test: Acetic acid Writhing Method; assay type: in vivo, mouse (male, ddY strain); settings: Mus musculus, read-out: Inhibition against Acetic acid writhing ED30
[4] = test system: carrageenin edema; test: Effect on carrageenin edema; assay type: in vivo, rat (male, SD strain); settings: Rattus norvegicus, po, read-out: Inhibition against Carrageenin edema ED30
Procedure: (Effect on carrageenin edema) One group consisting of 5 male rats of SD strain and of five weeks age was used in the experiment. Compounds to be tested were given orally and, three hours thereafter, 0.1 ml of 0.5% λ-carrageenin was injected at the right hind paw subcutaneously. After three hours, volume of the right hind paw was measured using a plethysmometer, then the volume of the hind paw before the carrageenin injection was deducted from the above measured value to obtain the degree of swelling (in ml), the average swelling inhibition rate of the groups treated with the compounds as compared with the control group was calculated and, using a method of least squares, ED30 was determined.

[5] = mice, i.p. (head), 0.6% acetic acid i.p. 3 h after oral compound (method), writhings over 20 min
[6] = rats, p.o., compound 3 h before carrageenin, paw volume after 3 h

Structure (SMILES) | LD50 at 168 h [1] [mg/kg] | TD50 at 24 h [2] [mg/kg] | ED30 [3, 5] [mg/kg] | ED30 [4, 6] [mg/kg] | TD50 at 24 h ([2]; rats, p.o., 24 h fasted, stomach observed 24 h after dosing, read-out: UD50 (50% ulcer-forming dose)) [mg/kg] | ED30 ([3]; po) [mg/kg] | ED30 ([4]; 3 h) [mg/kg]
CC(O)C=Cc1ccc2c(c1)Cc1ccccc1-2 (stereo not shown) [Example 2, 4-(2-fluorenyl)-3-buten-2-ol] | 1680 | 90 | 1.8 | 28.3 | – | – | –
CC(=O)CCc1ccc2c(c1)Cc1ccccc1-2 [Example 3, 4-(2-fluorenyl)-butan-2-one] | > 2000 | 182 | 37.2 | 12.5 | – | – | –
CC(O)CCc1ccc2c(c1)Cc1ccccc1-2 (stereo not shown) [Example 9, 4-(2-Fluorenyl)-butan-2-ol] | > 2000 | 68.4 | 18.4 | 17.3 | – | – | –
COc1ccc2c(c1)c(CC(=O)O)c(C)n2C(=O)c1ccc(Cl)cc1 [Indomethacin, reference compound] | 29 | – | – | – | 4 | 2.3 | 7.1
